Reference: ChEMBL document CHEMBL4359888, “Discovery of aryl-substituted indole and indoline derivatives as RORγt agonists” (Eur J Med Chem, 2019)
Values after ≈ are worked out from the molar mass of the structure shown.

Key:
[1] = Metabolic stability in mouse liver microsomes assessed as half life of compound at 1 uM and measured for 60 mins in presence of NADPH by HPLC-MS/MS analysis; type: ADME, Microsome
[2] = molecular target: T1, Nuclear receptor ROR-gamma (Homo sapiens, UniProt P51449); assay: Transactivation of human GAL4-fused RORgammaT LBD expressed in human HEK293T cells incubated for 16 to 20 hrs by steady-glo luciferase assay; type: cell-based
T1 sequence (P51449 whole entry): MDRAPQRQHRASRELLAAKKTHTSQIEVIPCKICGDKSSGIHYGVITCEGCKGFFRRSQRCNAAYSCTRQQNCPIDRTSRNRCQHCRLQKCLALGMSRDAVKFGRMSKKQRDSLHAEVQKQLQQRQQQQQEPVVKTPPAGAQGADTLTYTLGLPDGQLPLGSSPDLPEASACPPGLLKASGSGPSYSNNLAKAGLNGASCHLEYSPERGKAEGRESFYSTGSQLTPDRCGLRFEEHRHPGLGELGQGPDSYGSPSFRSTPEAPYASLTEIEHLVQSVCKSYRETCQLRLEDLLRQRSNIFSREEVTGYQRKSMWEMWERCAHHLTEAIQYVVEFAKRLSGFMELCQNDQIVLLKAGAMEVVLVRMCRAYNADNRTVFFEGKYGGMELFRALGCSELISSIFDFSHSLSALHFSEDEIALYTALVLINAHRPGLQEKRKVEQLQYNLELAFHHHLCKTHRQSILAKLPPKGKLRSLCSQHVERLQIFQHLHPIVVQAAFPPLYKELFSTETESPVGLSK

[3] = molecular target: T1, Nuclear receptor ROR-gamma; assay: Agonist activity at APC-labeled biotinylated RORgammaT LBD (unknown origin) assessed as induction of biotinylated SRC-1 peptide recruitment incubated for 1 hr by dual FRET assay
physchem = conditions: phosphate buffer, pH 7.46
in vitro = conditions: mouse, liver microsomes
[4] = Volume of distribution at steady state in CD-1 mouse at 1 mg/kg, iv measured for 24 hrs by LC-MS/MS analysis; type: ADME, organism-based; conditions: in vivo, read-out: Vdss
[5] = Oral bioavailability in CD-1 mouse at 5 mg/kg measured for 24 hrs by LC-MS/MS analysis; type: ADME, organism-based; conditions: in vivo
[6] = Half life in CD-1 mouse at 5 mg/kg, po measured for 24 hrs by LC-MS/MS analysis; type: ADME, organism-based; conditions: in vivo
[7] = Cmax in CD-1 mouse at 5 mg/kg, po measured for 24 hrs by LC-MS/MS analysis; type: ADME, organism-based; set-up: dose 5 mg/kg, route oral; conditions: in vivo
[8] = AUC (0 to last) in CD-1 mouse at 5 mg/kg, po measured for 24 hrs by LC-MS/MS analysis; type: ADME, organism-based; set-up: dose 5 mg/kg, route oral, time 0 - last; conditions: in vivo
[9] = AUC (0 to last) in CD-1 mouse at 1 mg/kg, iv measured for 24 hrs by LC-MS/MS analysis; type: ADME, organism-based; set-up: dose 1 mg/kg, route intravenous, time 0 - last; conditions: in vivo
[10] = Half life in CD-1 mouse at 1 mg/kg, iv measured for 24 hrs by LC-MS/MS analysis; type: ADME, organism-based; conditions: in vivo
[11] = Cmax in CD-1 mouse at 1 mg/kg, iv measured for 24 hrs by LC-MS/MS analysis; type: ADME, organism-based; set-up: dose 1 mg/kg, route intravenous; conditions: in vivo
[12] = Clearance in CD-1 mouse at 1 mg/kg, iv measured for 24 hrs by LC-MS/MS analysis; type: ADME, organism-based; conditions: in vivo

SMILES	half-life at 1 µM [1]	EC50 [3]	also measured
O=C(O)CCc1cc2ccc(-c3cc(F)cc(OC(F)F)c3)cc2n1S(=O)(=O)c1cccc(C(F)(F)F)c1	> 145 min	25.5 nM	EC50 [2]: 1710 nM
O=C(O)CCc1cn(S(=O)(=O)c2cccc(C(F)(F)F)c2)c2cc(-c3cc(F)cc(OC(F)F)c3)ccc12		43.6 nM	
O=C(O)CC1Cc2ccc(-c3cccc(OC(F)(F)F)c3)cc2N1S(=O)(=O)c1cccc(C(F)(F)F)c1 (stereo not drawn)		31.1 nM	
O=S(=O)(c1cccc(C(F)(F)F)c1)n1ncc2ccc(-c3cc(F)cc(OC(F)F)c3)cc21		205 nM	
O=C(O)CC1Cc2ccc(-c3ccc4c(c3)OC(F)(F)O4)cc2N1S(=O)(=O)c1cccc(C(F)(F)F)c1 (stereo not drawn)		42.6 nM	
O=C(CC1Cc2ccc(-c3cc(F)cc(OC(F)F)c3)cc2N1S(=O)(=O)c1cccc(C(F)(F)F)c1)N1CC(O)C1 (stereo not drawn)		244 nM	
O=C(O)CC1Cc2ccc(-c3ccc4c(c3)OCO4)cc2N1S(=O)(=O)c1cccc(C(F)(F)F)c1 (stereo not drawn)		87.4 nM	
O=S(=O)(c1cccc(C(F)(F)F)c1)N1CCc2ccc(-c3cc(F)cc(OC(F)F)c3)cc21	11.4 min	50.6 nM	solubility kinetic at 2 h, 100 µM (physchem): 1.48 µM (≈ 0.721 µg/mL); microsomal CLint at 1 h, 1 µM (in vitro): 121 µL/min/mg
COc1cc(F)cc(-c2ccc3c(c2)N(S(=O)(=O)c2cccc(C(F)(F)F)c2)C(CC(=O)O)C3)c1 (stereo not drawn)		39.3 nM	
O=C(O)c1cc2ccc(-c3cc(F)cc(OC(F)F)c3)cc2n1S(=O)(=O)c1cccc(C(F)(F)F)c1		74.3 nM	
O=C(O)Cc1cn(S(=O)(=O)c2cccc(C(F)(F)F)c2)c2cc(-c3cc(F)cc(OC(F)F)c3)ccc12		133 nM	
O=C(CC1Cc2ccc(-c3cc(F)cc(OC(F)F)c3)cc2N1S(=O)(=O)c1cccc(C(F)(F)F)c1)N1CC2(COC2)C1 (stereo not drawn)	0.7 min	47.9 nM	EC50 [2]: 752 nM
O=C(O)CCCc1cc2ccc(-c3cc(F)cc(OC(F)F)c3)cc2n1S(=O)(=O)c1cccc(C(F)(F)F)c1		45.3 nM	
O=C(O)CC1Cc2ccc(-c3ccc4c(c3)CCO4)cc2N1S(=O)(=O)c1cccc(C(F)(F)F)c1 (stereo not drawn)		56.8 nM	
O=C(O)CC1CN(S(=O)(=O)c2cccc(C(F)(F)F)c2)c2cc(-c3cc(F)cc(OC(F)F)c3)ccc21 (stereo not drawn)	45.6 min	21.8 nM	
O=C(O)C[C@@H]1Cc2ccc(-c3cc(F)cc(OC(F)F)c3)cc2N1S(=O)(=O)c1cccc(C(F)(F)F)c1		16.1 nM	EC50 [2]: 201 nM
CC(C)Oc1cc(F)cc(-c2ccc3c(c2)N(S(=O)(=O)c2cccc(C(F)(F)F)c2)C(CC(=O)O)C3)c1 (stereo not drawn)		124 nM	
O=C(O)CCC1CN(S(=O)(=O)c2cccc(C(F)(F)F)c2)c2cc(-c3cc(F)cc(OC(F)F)c3)ccc21 (stereo not drawn)	24.5 min	14.6 nM	
O=C(O)CCCc1cn(S(=O)(=O)c2cccc(C(F)(F)F)c2)c2cc(-c3cc(F)cc(OC(F)F)c3)ccc12		93.8 nM	
O=C1CCN(C(=O)CC2Cc3ccc(-c4cc(F)cc(OC(F)F)c4)cc3N2S(=O)(=O)c2cccc(C(F)(F)F)c2)C1 (stereo not drawn)		52.3 nM	
O=C(CC1Cc2ccc(-c3cc(F)cc(OC(F)F)c3)cc2N1S(=O)(=O)c1cccc(C(F)(F)F)c1)N1CCOCC1 (stereo not drawn)		209 nM	
O=S(=O)(c1cccc(C(F)(F)F)c1)n1ccc2ccc(-c3cc(F)cc(OC(F)F)c3)cc21	39.1 min	99.4 nM	

SMILES	half-life at 1 µM [1]	EC50 [3]	also measured
O=C(O)C[C@H]1Cc2ccc(-c3cc(F)cc(OC(F)F)c3)cc2N1S(=O)(=O)c1cccc(C(F)(F)F)c1		286 nM	
O=C(O)CC1Cc2ccc(-c3cc(F)cc(C(F)(F)F)c3)cc2N1S(=O)(=O)c1cccc(C(F)(F)F)c1 (stereo not drawn)		41.3 nM	
O=C(O)CCC1Cc2ccc(-c3cc(F)cc(OC(F)F)c3)cc2N1S(=O)(=O)c1cccc(C(F)(F)F)c1 (stereo not drawn)	60.9 min	31.3 nM	EC50 [2]: 2320 nM
O=C1CN(C(=O)CC2Cc3ccc(-c4cc(F)cc(OC(F)F)c4)cc3N2S(=O)(=O)c2cccc(C(F)(F)F)c2)C1 (stereo not drawn)		78.8 nM	
O=C(CC1Cc2ccc(-c3cc(F)cc(OC(F)F)c3)cc2N1S(=O)(=O)c1cccc(C(F)(F)F)c1)N1CCC(O)CC1 (stereo not drawn)	0.7 min	106 nM	EC50 [2]: 6040 nM
O=C(O)Cc1cc2ccc(-c3cc(F)cc(OC(F)F)c3)cc2n1S(=O)(=O)c1cccc(C(F)(F)F)c1		125 nM	
O=C(O)CCCC1CN(S(=O)(=O)c2cccc(C(F)(F)F)c2)c2cc(-c3cc(F)cc(OC(F)F)c3)ccc21 (stereo not drawn)	34.2 min	26.2 nM	
O=C(O)C1CCN(C(=O)CC2Cc3ccc(-c4cc(F)cc(OC(F)F)c4)cc3N2S(=O)(=O)c2cccc(C(F)(F)F)c2)CC1 (stereo not drawn)	30.1 min	57.1 nM	EC50 [2]: 5440 nM
O=C1CCN(C(=O)CC2Cc3ccc(-c4cc(F)cc(OC(F)F)c4)cc3N2S(=O)(=O)c2cccc(C(F)(F)F)c2)CC1 (stereo not drawn)		80.4 nM	
O=C(CC1Cc2ccc(-c3cc(F)cc(OC(F)F)c3)cc2N1S(=O)(=O)c1cccc(C(F)(F)F)c1)N1CCS(=O)(=O)CC1 (stereo not drawn)	2 min	43.4 nM	EC50 [2]: 322 nM
O=S(=O)(c1cccc(C(F)(F)F)c1)N1CCc2ccc(OCc3c(F)cccc3Cl)cc21	2.9 min	30.2 nM	solubility kinetic at 2 h, 100 µM (physchem): 0.08 µM (≈ 0.0389 µg/mL); microsomal CLint at 1 h, 1 µM (in vitro): 482 µL/min/mg
O=C(O)CCCC1Cc2ccc(-c3cc(F)cc(OC(F)F)c3)cc2N1S(=O)(=O)c1cccc(C(F)(F)F)c1 (stereo not drawn)	93.3 min	25.2 nM	EC50 [2]: 422 nM
O=S(=O)(c1cccc(C(F)(F)F)c1)n1cnc2ccc(-c3cc(F)cc(OC(F)F)c3)cc21		122 nM	
CCOc1cc(F)cc(-c2ccc3c(c2)N(S(=O)(=O)c2cccc(C(F)(F)F)c2)C(CC(=O)O)C3)c1 (stereo not drawn)		32.9 nM	
O=C(O)CC1Cc2ccc(-c3cc(F)cc(F)c3)cc2N1S(=O)(=O)c1cccc(C(F)(F)F)c1 (stereo not drawn)		25.7 nM	
O=C(O)CC1Cc2ccc(-c3cc(F)cc(Cl)c3)cc2N1S(=O)(=O)c1cccc(C(F)(F)F)c1 (stereo not drawn)		42 nM	
O=C(O)C1CN(C(=O)CC2Cc3ccc(-c4cc(F)cc(OC(F)F)c4)cc3N2S(=O)(=O)c2cccc(C(F)(F)F)c2)C1 (stereo not drawn)	65.9 min	49.3 nM	EC50 [2]: 4050 nM
O=C(O)CC1Cc2ccc(-c3cc(F)cc(OC(F)F)c3)cc2N1S(=O)(=O)c1cccc(C(F)(F)F)c1 (racemic)	113 min	20.8 nM	Vd [4]: 2.09 L/kg; bioavailability [5]: 107%; half-life [6]: 249 min; Cmax [7]: 1400 ng/mL; AUC(0-t) at 24 h [8]: 9120 ng·h/mL; solubility kinetic at 2 h, 100 µM (physchem): 69.4 µM (≈ 37.9 µg/mL); AUC(0-t) at 24 h [9]: 1710 ng·h/mL; half-life [10]: 295 min; microsomal CLint at 1 h, 1 µM (in vitro): 12.3 µL/min/mg; EC50 [2]: 247 nM; Cmax [11]: 1640 ng/mL; clearance [12]: 9.55 mL/min/kg
CC(C)(C[C@H]1CN(S(=O)(=O)c2cccc(C(F)(F)F)c2)c2cc(-c3cc(F)cc(OC(F)F)c3)ccc2O1)C(=O)O [CINTIRORGON]			solubility kinetic at 2 h, 100 µM (physchem): 37.5 µM (≈ 22.6 µg/mL)
CC(=O)N1CCN(c2ccc(OCC3COC(Cn4ccnc4)(c4ccc(Cl)cc4Cl)O3)cc2)CC1 (stereo not drawn) [KETOCONAZOLE]			solubility kinetic at 2 h, 100 µM (physchem): 31.1 µM (≈ 16.5 µg/mL)
COC(=O)C1=C(C)NC(C)=C(C(=O)OCCN(C)Cc2ccccc2)C1c1cccc([N+](=O)[O-])c1 (stereo not drawn) [NICARDIPINE]			solubility kinetic at 2 h, 100 µM (physchem): 5.01 µM (≈ 2.4 µg/mL)
